Several values for one entry are separate records, joined by “and”; a condition that tells them apart may be missing. Equal values may be shown once.
Assays:
ARISC = target: T1, ARISC (Homo sapiens, UniProt P46736+Q6UWZ7+Q9NXR7); assay: ARISC IQF DUB activity assay; format: biochemical; settings: Fig. 1g, ARISC
T1 construct: full-length BRISC (FL), ARISC (FL); made in house; host or cells: Spodoptera frugiperda (Sf9) insect cells, MultiBac
Description: (§1) IQF assays were performed in DUB reaction buffer containing 50 mM HEPES–NaOH pH 7.0, 100 mM NaCl, 0.1 mg ml^−1 BSA, 1 mM DTT and 0.03% v/v Brij-35. […] The final concentration of BRISC WT, all BRISC mutants, HsBRISCΔLoop, MmBRISC and DrBRISCΔNΔC was 1 nM. Other enzymes were tested at the following concentrations: 5 nM ARISC (FL), 10 nM CfBRISCΔNΔC, 250 nM AMSH* (ref. [43]), 500 nM USP2 and 1 μM trypsin (Sigma, 9002-07-7). For Michaelis–Menten experiments, 1 nM BRISC with 0–1 μM IQF K63-linked diubiquitin substrate was used. Michaelis–Menten analyses and Lineweaver–Burk plots were calculated using GraphPad Prism (version 9.0).
(§2) To assess enzymatic activity, BRISC complexes were diluted to concentrations between 1 nM and 50 nM. […] Then, 20-μl enzyme reactions were carried out in 384-well black flat-bottom low-flange plates (Corning, 35373). DUB activity was measured using IQF K63-linked diubiquitin (LifeSensors, DU6303) at 50 nM. Cleaved diubiquitin was monitored by measuring fluorescence intensity (excitation, 544 nm; emission, 575 nm; dichroic mirror, 560 nm). Fluorescence intensity was measured every minute for 30 min at 30 °C. Fluorescence intensity units were plotted against time to generate a linear reaction progress curve, where the initial velocity (V0) corresponds to the gradient of the curve (typically achieved within 15 min). IC50 values were calculated using the GraphPad Prism (version 9.0) built-in dose–response equation for inhibitor concentration versus response (variable slope).

BRCC36–Abraxas 2 complex = target: T2, BRCC36–Abraxas 2 complex (Homo sapiens, UniProt P46736+Q15018); assay: BRCC36–Abraxas 2 IQF DUB activity assay; format: biochemical; settings: for Normalised V0: Fig. 1g, HsBRCC36-Abraxas2
T2 construct: made in house; host or cells: Spodoptera frugiperda (Sf9) insect cells, MultiBac
Description: as §1, §2

USP2 = target: T3, USP2 (Homo sapiens, UniProt O75604); assay: USP2 IQF diubiquitin selectivity assay; format: biochemical; settings: Fig. 1g, USP2
T3 construct: His (N, cleaved yes); host or cells: Escherichia coli BL21(DE3)
T3 sequence (O75604 258-605 limits assumed): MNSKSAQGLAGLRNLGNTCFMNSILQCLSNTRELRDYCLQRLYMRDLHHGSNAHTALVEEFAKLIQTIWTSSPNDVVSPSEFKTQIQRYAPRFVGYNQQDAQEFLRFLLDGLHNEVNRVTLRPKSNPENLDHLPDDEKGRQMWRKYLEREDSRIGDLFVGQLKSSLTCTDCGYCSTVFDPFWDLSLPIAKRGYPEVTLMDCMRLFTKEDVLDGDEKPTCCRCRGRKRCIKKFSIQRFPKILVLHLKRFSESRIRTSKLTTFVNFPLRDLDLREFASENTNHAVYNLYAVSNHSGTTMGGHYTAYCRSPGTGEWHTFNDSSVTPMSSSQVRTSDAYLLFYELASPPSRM
Description: BRISC DUB activity was measured at room temperature using 1 nM BRISC and 500 nM IQF diubiquitin K63 substrate (LifeSensors, DU6303) in the presence of DMSO and compounds at 10 μM (final concentrations). Assays were performed in 384-well black flat-bottom low-flange plates (Corning, 35373) in buffer containing 50 mM HEPES–NaOH pH 7.0, 100 mM NaCl, 1 mg ml^−1 BSA, 1 mM DTT and 0.03% v/v Brij-35. Then, 10 μl of twofold concentrated enzyme stock was dispensed, followed by transfer of 200 nl of compounds (1 mM stock) using a 384-pin tool and a 15-min incubation at room temperature. Then, 10 μl of twofold concentrated substrate stock was added and the reaction was monitored by measuring fluorescence intensity (excitation, 540 nm; emission, 580 nm) after 20-min incubation at room temperature and ~50% of substrate was consumed. Orthogonal assays for verification of H20 and P12 hit compounds using USP2 (100 nM) and trypsin (125 nM) were performed in identical conditions.
as §1, §2

[1] = test system: ISG expression in MCF10A Cas9 cells expressing BRCC45 WT; assay: MCF10A BRCC45 WT ISG expression (RT–qPCR); format: cell-based, human; settings: hIFNα2 75 ng/ml, 2.5 μM, 4 h

Normalised V0 (ARISC; FX-171-C 0.02 μM): 1.1225 and 0.966 and 1.021
Normalised V0 (ARISC; FX-171-C 0.0399999 μM): 1.087 and 0.9846 and 0.8911
Normalised V0 (ARISC; FX-171-C 0.0599997 μM): 1.028 and 0.9352 and 0.9674
Normalised V0 (ARISC; FX-171-C 0.0799994 μM): 1.023 and 0.9476 and 0.8942
Normalised V0 (ARISC; FX-171-C 0.119998 μM): 0.9409 and 0.9459 and 1.0338
Normalised V0 (ARISC; FX-171-C 0.199996 μM): 1.019 and 0.9437 and 0.9099
Normalised V0 (ARISC; FX-171-C 0.799936 μM): 0.9597 and 0.9609 and 1.054
Normalised V0 (ARISC; FX-171-C 1.25984 μM): 0.9789 and 0.9339 and 0.958
Normalised V0 (ARISC; FX-171-C 1.9996 μM): 1.042 and 0.9796 and 1.015
Normalised V0 (ARISC; FX-171-C 3.159 μM): 0.8585 and 0.91 and 0.9812
Normalised V0 (ARISC; FX-171-C 5.19739 μM): 0.9682 and 0.9452 and 1.064
Normalised V0 (ARISC; FX-171-C 7.99364 μM): 0.9509 and 0.8953 and 0.9841
Normalised V0 (ARISC; FX-171-C 12.7839 μM): 1.013 and 0.9875 and 0.9597
Normalised V0 (ARISC; FX-171-C 19.96 μM): 0.9552 and 0.8845 and 0.9378
Normalised V0 (ARISC; FX-171-C 31.4999 μM): 0.9912 and 0.9889 and 0.9686
Normalised V0 (ARISC; FX-171-C 50.147 μM): 0.9345 and 0.8543 and 0.967
Normalised V0 (ARISC; FX-171-C 79.7601 μM): 0.9819 and 0.9178 and 0.8968
Normalised V0 (ARISC; FX-171-C 125.99 μM): 0.9989 and 0.9716 and 0.9683
Normalised V0 (ARISC; FX-171-C 199.922 μM): 0.744 and 0.5764 and 0.798
Normalised V0 (BRCC36–Abraxas 2 complex; FX-171-C 0.02 μM): 1.3 and 1.008 and 1.02
Normalised V0 (BRCC36–Abraxas 2 complex; FX-171-C 0.0399999 μM): 1.022 and 1.101 and 0.829
Normalised V0 (BRCC36–Abraxas 2 complex; FX-171-C 0.0599997 μM): 1.02 and 1.119 and 0.8587
Normalised V0 (BRCC36–Abraxas 2 complex; FX-171-C 0.0799994 μM): 1.3 and 1.0735 and 0.9036
Normalised V0 (BRCC36–Abraxas 2 complex; FX-171-C 0.119998 μM): 1.089 and 1.054 and 0.9805
Normalised V0 (BRCC36–Abraxas 2 complex; FX-171-C 0.199996 μM): 1.086 and 0.9378 and 0.7276
Normalised V0 (BRCC36–Abraxas 2 complex; FX-171-C 0.499975 μM): 1.276 and 0.8855 and 0.9134
Normalised V0 (BRCC36–Abraxas 2 complex; FX-171-C 0.799936 μM): 1.016 and 0.9326 and 0.9281
Normalised V0 (BRCC36–Abraxas 2 complex; FX-171-C 1.25984 μM): 1.192 and 1.006 and 0.8037
Normalised V0 (BRCC36–Abraxas 2 complex; FX-171-C 1.9996 μM): 1.057 and 0.8883 and 0.8901
Normalised V0 (BRCC36–Abraxas 2 complex; FX-171-C 3.159 μM): 1.054 and 1.032 and 0.8522
Normalised V0 (BRCC36–Abraxas 2 complex; FX-171-C 5.19739 μM): 1.053 and 0.9454 and 1.03
Normalised V0 (BRCC36–Abraxas 2 complex; FX-171-C 7.99364 μM): 1.141 and 1 and 1.012
Normalised V0 (BRCC36–Abraxas 2 complex; FX-171-C 12.7839 μM): 1.078 and 0.9313 and 0.7823
Normalised V0 (BRCC36–Abraxas 2 complex; FX-171-C 19.96 μM): 1.034 and 1.063 and 0.8934
Normalised V0 (BRCC36–Abraxas 2 complex; FX-171-C 31.4999 μM): 1.1494 and 0.9768 and 0.8462
Normalised V0 (BRCC36–Abraxas 2 complex; FX-171-C 50.147 μM): 1.218 and 1.114 and 0.9054
Normalised V0 (BRCC36–Abraxas 2 complex; FX-171-C 79.7601 μM): 1.112 and 1.275 and 1.169
Normalised V0 (BRCC36–Abraxas 2 complex; FX-171-C 125.99 μM): 1.275 and 1.029 and 0.9009
Normalised V0 (BRCC36–Abraxas 2 complex; FX-171-C 199.922 μM): 1.127 and 0.8107 and 0.6392
inhibition of BRCC36–Abraxas 2 complex (BRCC36–Abraxas 2 complex; minimally active complex): did not inhibit
Normalised V0 (USP2; FX-171-C 0.02 μM): 1.153 and 1.005 and 0.8911
Normalised V0 (USP2; FX-171-C 0.0399999 μM): 1.181 and 1.054 and 0.8345
Normalised V0 (USP2; FX-171-C 0.0599997 μM): 1.101 and 1.035 and 0.8564
Normalised V0 (USP2; FX-171-C 0.0799994 μM): 1.262 and 0.9465 and 0.964
Normalised V0 (USP2; FX-171-C 0.119998 μM): 1.156 and 1.12 and 1.0155
Normalised V0 (USP2; FX-171-C 0.199996 μM): 1.162 and 0.9867 and 0.9385
Normalised V0 (USP2; FX-171-C 0.499975 μM): 1.323 and 0.7865 and 0.9403
Normalised V0 (USP2; FX-171-C 0.799936 μM): 1.167 and 0.9524 and 0.9376
Normalised V0 (USP2; FX-171-C 1.25984 μM): 1.254 and 0.9797 and 0.8377
Normalised V0 (USP2; FX-171-C 1.9996 μM): 1.211 and 0.9571 and 0.9503
Normalised V0 (USP2; FX-171-C 3.159 μM): 1.329 and 0.7564 and 0.948
Normalised V0 (USP2; FX-171-C 5.19739 μM): 1.206 and 0.9941 and 0.9284
Normalised V0 (USP2; FX-171-C 7.99364 μM): 1.269 and 0.9668 and 0.7862
Normalised V0 (USP2; FX-171-C 12.7839 μM): 1.167 and 1.027 and 0.9175
Normalised V0 (USP2; FX-171-C 19.96 μM): 1.282 and 0.8934 and 0.9216
Normalised V0 (USP2; FX-171-C 31.4999 μM): 1.071 and 0.9617 and 0.949
Normalised V0 (USP2; FX-171-C 50.147 μM): 1.087 and 1.072 and 0.8163
Normalised V0 (USP2; FX-171-C 79.7601 μM): 1.1 and 0.8638 and 0.912
Normalised V0 (USP2; FX-171-C 125.99 μM): 1.048 and 0.9793 and 0.8997
Normalised V0 (USP2; FX-171-C 199.922 μM): 1.047 and 0.829 and 0.8108
Compound: O=C(NC1C2CNCC21)c1nn(C(=O)c2c(Cl)cccc2Cl)cc1NC(=O)c1c(Cl)cccc1Cl (stereo not shown) [FX-171-C]
ISG expression (ISG15, IFIT1, IFIT2, IFITM1, CXCL10) [1]: reduced gene expression for all five ISGs

From paper PMC7617869, “Molecular glues that inhibit deubiquitylase activity and inflammatory signaling” (Nature Structural & Molecular Biology, 2025)
